Measured values reported in PubChem BioAssay AID1845215 (Molecular Pharmacology Branch, DTP, NCI, 2023).
Values joined by “and” are separate entries in the source; they are usually repeats but may differ in a detail not shown here. Equal values may be shown once.

Test system: SW 1271 complex tumor spheroid viability
Experiment: Anticancer human tumor SW 1271 cell line growth inhibition;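 also: spheroids exposed to agents for seven days before readout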;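 as to viability, T/C: percent of DMSO vehicle control luminescence so 100% = vehicle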
Conditions: for viability, T/C: stronger effect = lower value; active = viability on the fitted dose curve at most 10% of control; inactive = the rest
From the text: Multicellular complex tumor spheroid response to DNA repair inhibitors in combination with DNA-damaging drugs
This study explores the anticancer activities of DNA-damaging drugs and inhibitors of DNA damage repair, both as single agents and in combinations. Complex tumor spheroids comprised of malignant cells, endothelial cells and mesenchymal stem cells served as an in vitro model for human solid tumors. This model system incorporates physiologically relevant features and patient-derived or established malignant cell lines with clinically relevant genetic alterations from many tumor types. Twenty-six patient-derived or established malignant cell lines were evaluated representing sarcoma, melanoma, small cell lung cancer (SCLC), non-small cell lung cancer (NSCLC), as well as bladder, ovarian and pancreatic cancers. The concentration ranges selected for each drug and investigational agent were based upon clinically achievable concentrations if the clinical Cmax of the agent was known.
Compounds. The drugs and compounds olaparib (NSC753686), talazoparib (NSC767125), berzosertib (NSC777718), elimusertib (NSC800525), nedisertib (NSC802822), VX-984 (NSC792969), AZD-1390 (NSC803789), temozolomide (NSC362856), topotecan (NSC609699), trabectedin (NSC813783), staurosporine (NSC755774), and gemcitabine (NSC613327) were obtained from the National Cancer Institute (NCI) Developmental Therapeutics Program Chemical Repository. The FDA-approved anticancer drug set is available from the Developmental Therapeutics Program at https://dtp.cancer.gov/organization/dscb/obtaining/available_plates.htm. […] The stock solutions were prepared in dimethyl sulfoxide (DMSO, Sigma-Aldrich, St. Louis, MO, cat. D2650) at 400-fold the tested concentration and stored at -70 degrees C. Prior to their use, the stock solutions were diluted in fresh medium and the final DMSO concentration in the assay was 0.25% (v/v). All drugs and investigational agents were tested over a range starting from a high concentration at or near the clinical Cmax and decreasing in half-log increments. If the clinical Cmax for an agent had not been determined, the highest concentration tested was 10 microM.
Cell Lines. The patient-derived cancer cell (PDC) lines: 156681-154-R-J1-PDC, 283228-195-R-J1-PDC, 287954-098-R-J1-PDC, 292921-168-R-J2-PDC, 349418-098-R-PDC, 425362-245-T-J1-PDC, 556581-035-R-J1-PDC, and BL0293-F563-PDC were received from the NCI Patient-Derived Models Repository (PDMR, https://pdmr.cancer.gov). The established cell lines HS-SY-2 (RRID:CVCL_8719), MPNST, and SYO-1 (RRID:CVCL_7146) were obtained from the Sloan Kettering Institute. The alveolar soft parts sarcoma cell line ASPS-1 (RRID:CVCL_S738) was established at the NCI and grown from internal seed stocks. The following established cell lines were purchased from the American Type Culture Collection (ATCC, Manassas, VA): G-401 (ATCC, cat. CRL-1441, RRID:CVCL_0270), SW982 (ATCC, cat. HTB-93, RRID:CVCL_1734), VA-ES-BJ (ATCC, cat. CRL-2138, RRID:CVCL_1785), NCI-H719 (ATCC, cat. CRL-5837, RRID:CVCL_1582), NCI-H196 (ATCC, cat. CRL-5823, RRID:CVCL_1509), NCI-H841 (ATCC, cat. CRL-5845, RRID:CVCL_1595), NCI-H1618 (ATCC, cat. CRL-5879, RRID:CVCL_1480), NCI-H1876 (ATCC, cat. CRL-5902, RRID:CVCL_1503), DMS 114 (ATCC, cat. CRL-2066; RRID:CVCL_1174), NCI-H211 (ATCC, cat. CRL-5824; RRID:CVCL_1529), and SW 1271 (ATCC, cat. CRL-2177, RRID:CVCL_1716). The small cell lung cancer cell line COR-L88 was purchased from Sigma-Aldrich (cat. 92031917-1VL, RRID:CVCL_1141). The non-small cell lung cancer cell lines NCI-H226 (RRID:CVCL_1544) and NCI-H322M (RRID:CVCL_1557) were established at the NCI and grown from internal seed stocks. Pooled donor human umbilical vein endothelial cells (HUVEC, Lonza, cat. CC-2519) and human mesenchymal stem cells (hMSC, Lonza, cat. PT-2501) were purchased from Lonza (Walkersville, MD).
Cell Culture. All cells were maintained in an incubator at 37 degrees C and 5% CO2 with 95% humidity. […]

[1] = curve of first compound, second compound 30 pM
[2] = curve of first compound, second compound 94.9 pM
[3] = curve of first compound, second compound 0.0003 µM
[4] = curve of first compound, second compound 0.000949 µM
[5] = curve of first compound, second compound 0.003 µM

CNCc1ccc(-c2cc(-c3nc(-c4ccc(S(=O)(=O)C(C)C)cc4)cnc3N)on2)cc1 + COc1cc2c(cc1O)CCNC21CSC2c3c(OC(C)=O)c(C)c4c(c3C(COC1=O)N1C(O)C3Cc5cc(C)c(OC)c(O)c5C(C21)N3C)OCO4
active: viability, T/C (second compound 30 pM, first compound 0.949 µM) 11.3% | viability, T/C (second compound 30 pM, first compound 3 µM) 0.15% | viability, T/C (second compound 94.9 pM, first compound 3 µM) 0.12% | viability, T/C (second compound 0.0003 µM, first compound 3 µM) 0.15% | viability, T/C (second compound 0.000949 µM, first compound 0.00949 µM) 5.31% | viability, T/C (second compound 0.000949 µM, first compound 0.03 µM) 7.14% | viability, T/C (second compound 0.000949 µM, first compound 0.0949 µM) 3.92% | viability, T/C (second compound 0.000949 µM, first compound 0.3 µM) 2.05% | viability, T/C (second compound 0.000949 µM, first compound 0.949 µM) 1.95% | viability, T/C (second compound 0.000949 µM, first compound 3 µM) 0.11% | viability, T/C (second compound 0.003 µM, first compound 0.00949 µM) 0.11% | viability, T/C (second compound 0.003 µM, first compound 0.03 µM) 0.11% | viability, T/C (second compound 0.003 µM, first compound 0.0949 µM) 0.09% | viability, T/C (second compound 0.003 µM, first compound 0.3 µM) 0.09% | viability, T/C (second compound 0.003 µM, first compound 0.949 µM) 0.1% | viability, T/C (second compound 0.003 µM, first compound 3 µM) 0.16%
117 nM: IC50 [1]
inactive: viability, T/C (second compound 30 pM, first compound 0.00949 µM) 89.6% | viability, T/C (second compound 30 pM, first compound 0.03 µM) 89.7% | viability, T/C (second compound 30 pM, first compound 0.0949 µM) 55.5% | viability, T/C (second compound 30 pM, first compound 0.3 µM) 18.8% | viability, T/C (second compound 94.9 pM, first compound 0.00949 µM) 64% | viability, T/C (second compound 94.9 pM, first compound 0.03 µM) 42.6% | viability, T/C (second compound 94.9 pM, first compound 0.0949 µM) 37% | viability, T/C (second compound 94.9 pM, first compound 0.3 µM) 27.9% | viability, T/C (second compound 94.9 pM, first compound 0.949 µM) 14.7% | viability, T/C (second compound 0.0003 µM, first compound 0.00949 µM) 28.8% | viability, T/C (second compound 0.0003 µM, first compound 0.03 µM) 35.5% | viability, T/C (second compound 0.0003 µM, first compound 0.0949 µM) 38.5% | viability, T/C (second compound 0.0003 µM, first compound 0.3 µM) 35% | viability, T/C (second compound 0.0003 µM, first compound 0.949 µM) 19.5%
< 9.49 nM: IC50 [3] | IC50 [4] | IC50 [5]
26.6 nM: IC50 [2]

[2H]c1nc(C)nc([2H])c1-c1cc(NC[C@@H](C)c2cccc3c(C(=O)NC)ccnc23)ncn1
inactive: viability, T/C (compound 0.0316 µM) 96.9% and 105% and 108% | viability, T/C (compound 0.1 µM) 98.7% and 104% and 106% | viability, T/C (compound 0.316 µM) 101% and 95.6% and 96.8% | viability, T/C (compound 1 µM) 104% (2×) and 99.2% | viability, T/C (compound 3.16 µM) 98% and 96.2% and 104% | viability, T/C (compound 10 µM) 90.8% and 102% and 96.7%
> 10000 nM: IC50 (curve of compound)

COc1ccc([C@@H](O)c2cc(-c3ncnc4cc(N5CCOCC5)ccc34)c(F)cc2Cl)nn1 + COc1cc2c(cc1O)CCNC21CSC2c3c(OC(C)=O)c(C)c4c(c3C(COC1=O)N1C(O)C3Cc5cc(C)c(OC)c(O)c5C(C21)N3C)OCO4
1080 nM: IC50 [1]
< 31.6 nM: IC50 [3] | IC50 [4] | IC50 [5]
inactive: viability, T/C (second compound 30 pM, first compound 0.0316 µM) 84.9% | viability, T/C (second compound 30 pM, first compound 0.1 µM) 86.9% | viability, T/C (second compound 30 pM, first compound 0.316 µM) 77.4% | viability, T/C (second compound 30 pM, first compound 1 µM) 51.1% | viability, T/C (second compound 30 pM, first compound 3.16 µM) 21.7% | viability, T/C (second compound 94.9 pM, first compound 0.0316 µM) 71.1% | viability, T/C (second compound 94.9 pM, first compound 0.1 µM) 51.8% | viability, T/C (second compound 94.9 pM, first compound 0.316 µM) 39.6% | viability, T/C (second compound 94.9 pM, first compound 1 µM) 33.5% | viability, T/C (second compound 94.9 pM, first compound 3.16 µM) 25.9% | viability, T/C (second compound 0.0003 µM, first compound 0.0316 µM) 35.7% | viability, T/C (second compound 0.0003 µM, first compound 0.1 µM) 33.3% | viability, T/C (second compound 0.0003 µM, first compound 0.316 µM) 31.1% | viability, T/C (second compound 0.0003 µM, first compound 1 µM) 17.6%
active: viability, T/C (second compound 30 pM, first compound 10 µM) 6.57% | viability, T/C (second compound 94.9 pM, first compound 10 µM) 4.84% | viability, T/C (second compound 0.0003 µM, first compound 3.16 µM) 1.97% | viability, T/C (second compound 0.0003 µM, first compound 10 µM) 0.12% | viability, T/C (second compound 0.000949 µM, first compound 0.0316 µM) 2.95% | viability, T/C (second compound 0.000949 µM, first compound 0.1 µM) 2.6% | viability, T/C (second compound 0.000949 µM, first compound 0.316 µM) 1.24% | viability, T/C (second compound 0.000949 µM, first compound 1 µM) 0.04% | viability, T/C (second compound 0.000949 µM, first compound 3.16 µM) 0.02% | viability, T/C (second compound 0.000949 µM, first compound 10 µM) 0.1% | viability, T/C (second compound 0.003 µM, first compound 0.0316 µM) 0.1% | viability, T/C (second compound 0.003 µM, first compound 0.1 µM) 0.08% | viability, T/C (second compound 0.003 µM, first compound 0.316 µM) 0.08% | viability, T/C (second compound 0.003 µM, first compound 1 µM) 0.08% | viability, T/C (second compound 0.003 µM, first compound 3.16 µM) 0.09% | viability, T/C (second compound 0.003 µM, first compound 10 µM) 0.15%
168 nM: IC50 [2]
